Assay results reported in PMC6539231, “4,5-Diaryl 3(2H)Furanones: Anti-Inflammatory Activity and Influence on Cancer Growth” (Molecules, 2019).
Entries after “also recorded” stand apart in the source; their conditions may differ.

How the values were obtained:
HSC-3 cells = assay: Growth inhibition assay, HSC-3 cells; settings: for HSC-3 % Cell Growth: Compound concentration: 10μΜ; for IC50: Homo sapiens, HSC-3, 48 h, read-out: HSC-3 IC50 Values
MCF-7 cells [1] = assay: Combination (synergy) growth assay in MCF-7 cells, Combination Index; assay type: cell-based, human; settings: MCF-7, 48 h; for Combination Effect with celecoxib / CI, combination with celecoxib: + 29 μM cel; for % Cell Growth, combination with celecoxib: + 29 μM cel (21.3 μM 1h, 2.9 μM 1g, 3.8 μM x-1); for CI, combination with celecoxib: CI <1 synergy, >1 antagonism
[2] = system: carrageenan mice paw oedema; assay: Carrageenin-induced mouse paw edema; assay type: in vivo, mice (AKR); settings: Mus musculus, ip; Dose 0.1 µmol/g; intraperitoneally, simultaneously with carrageenin; read-out: CPE, %
Method: From the data of Table 7 it is obvious that anti-inflammatory activity of alkylsulfones and sulfoxides of furan-3(2H)-ones, including annelated derivatives are very similar.
The anti-inflammatory activity of compounds was performed using the carrageenan mice paw oedema assay. Animal of both sex (AKR), with exception of pregnant females were housed under standard conditions, receiving only water during the experimental period. […] The detailed description of the whole experiment reported previously. All the biological experiments were carried out in full compliance with the European Convention for the Protection of Vertebrate Animals used for Experimental or Other Scientific Purposes (ETS NO 123, Strasbourg, 03/18/1986): Strasbourg (France). European Treaty Series, № 123, March 18, 1986. 11 P. The project identification code and date of approval is 350880/3468 of 15-12-2014, University of Thessaloniki.

MCF-7 cells [3] = assay: Combination (synergy) growth assay in MCF-7 cells, Combination Index; assay type: cell-based, human; settings: MCF-7, 48 h; for Combination Effect with 5-fluorouracil / CI, combination with 5-fluorouracil: + 0.3 μM 5-fu; for % Cell Growth, combination with 5-fluorouracil: + 0.3 μM 5-fu (21.3 μM 1h, 2.9 μM 1g, 3.8 μM x-1, 29 μM cel); for CI, combination with 5-fluorouracil / CI, combination with gefitinib: CI <1 synergy, >1 antagonism; for Combination Effect with gefitinib / CI, combination with gefitinib: + 70 μM gef; for % Cell Growth, combination with gefitinib: + 70 μM gef (27.5 μM 1h, 10 μM 1g, 10 μM x-1, 29 μM cel)
Method: In addition, exposure of the MCF-7 cells to each of the compounds in combination with each one of the two anti-neoplastic drugs was performed in order to study the synergistic effect of the compounds. The results are shown in Table 9 and Figure 5 and Figure 6.

MCF-7 cells [4] = assay: Growth inhibition assay, MCF-7 cells; assay type: cell-based, human; settings: Homo sapiens, MCF7, 48 h, 48 h exposure
human recombinant COX-2 = biological target: T1, human recombinant COX-2 (Homo sapiens, UniProt P35354); assay: In vitro COX-2 inhibition (Cayman COX Inhibitor Screening Assay kit); assay type: biochemical; settings: for % Inhibition (COX-2): Compound concentration 50 μΜ, arachidonic acid 0.1 μM
T1 construct: purchased Cayman Chemical Co., Ann Arbor, MI, USA
T1 sequence (P35354 18-604): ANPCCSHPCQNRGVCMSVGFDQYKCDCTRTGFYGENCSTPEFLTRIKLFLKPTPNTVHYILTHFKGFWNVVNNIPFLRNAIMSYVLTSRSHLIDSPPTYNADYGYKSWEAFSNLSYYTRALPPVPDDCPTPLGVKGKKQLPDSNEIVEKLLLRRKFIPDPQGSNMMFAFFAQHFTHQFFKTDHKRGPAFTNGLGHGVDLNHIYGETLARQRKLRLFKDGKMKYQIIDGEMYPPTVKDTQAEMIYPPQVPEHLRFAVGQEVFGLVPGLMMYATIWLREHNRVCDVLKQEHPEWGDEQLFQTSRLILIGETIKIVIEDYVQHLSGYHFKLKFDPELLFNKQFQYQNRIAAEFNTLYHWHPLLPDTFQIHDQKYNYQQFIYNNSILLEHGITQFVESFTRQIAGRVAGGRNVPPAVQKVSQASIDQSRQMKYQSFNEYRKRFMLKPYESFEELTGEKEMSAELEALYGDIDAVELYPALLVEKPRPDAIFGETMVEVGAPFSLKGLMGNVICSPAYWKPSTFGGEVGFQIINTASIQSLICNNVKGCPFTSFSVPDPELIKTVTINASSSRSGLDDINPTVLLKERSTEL
Method: (§1) The COX-1 and COX-2 activities of the compounds were measured using ovine COX-1 and human recombinant COX-2 enzymes included in the “COX Inhibitor Screening Assay” kit provided by Cayman (Cayman Chemical Co., Ann Arbor, MI, USA) as reported previously

ovine COX-1 = biological target: T2, ovine COX-1 (Ovis aries, UniProt P05979); assay: In vitro COX-1 inhibition (Cayman COX Inhibitor Screening Assay kit); assay type: biochemical; settings: for % Inhibition (COX-1): Compound concentration 50 μΜ, arachidonic acid 0.1 μM
T2 construct: purchased Cayman Chemical Co., Ann Arbor, MI, USA
T2 sequence (P05979 25-600): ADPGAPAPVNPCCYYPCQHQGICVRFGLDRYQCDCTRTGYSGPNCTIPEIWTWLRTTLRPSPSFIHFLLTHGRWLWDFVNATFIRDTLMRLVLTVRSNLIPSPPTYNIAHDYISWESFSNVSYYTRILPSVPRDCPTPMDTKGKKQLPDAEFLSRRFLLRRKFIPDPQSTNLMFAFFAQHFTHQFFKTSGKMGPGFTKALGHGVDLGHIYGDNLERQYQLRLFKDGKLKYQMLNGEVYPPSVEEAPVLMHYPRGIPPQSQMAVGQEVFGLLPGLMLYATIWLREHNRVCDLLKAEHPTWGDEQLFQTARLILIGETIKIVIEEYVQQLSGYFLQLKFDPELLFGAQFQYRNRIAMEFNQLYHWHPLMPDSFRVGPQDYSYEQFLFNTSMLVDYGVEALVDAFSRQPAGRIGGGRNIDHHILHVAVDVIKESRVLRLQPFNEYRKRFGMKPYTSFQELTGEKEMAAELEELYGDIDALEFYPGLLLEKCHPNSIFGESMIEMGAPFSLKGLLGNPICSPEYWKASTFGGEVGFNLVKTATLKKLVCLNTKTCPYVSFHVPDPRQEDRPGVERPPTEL
Method: as §1

IC50 (MCF-7 cells [4]) | melting point | % Inhibition (COX-2) (human recombinant COX-2) | % Inhibition (COX-1) (ovine COX-1) | IC50 (human recombinant COX-2; read-out: Experimental IC50 COX-2) | IC50 (ovine COX-1; read-out: Experimental IC50 COX-1) | SMILES | HSC-3 % Cell Growth (HSC-3 cells) | IC50 (HSC-3 cells) | Combination Effect with celecoxib (MCF-7 cells [1]) | % Cell Growth, combination with celecoxib (MCF-7 cells [1]) | CI, combination with celecoxib (MCF-7 cells [1]) | inhibition in vivo at 0.1 µmol/g [2] | Combination Effect with 5-fluorouracil (MCF-7 cells [3]) | % Cell Growth, combination with 5-fluorouracil (MCF-7 cells [3]) | CI, combination with 5-fluorouracil (MCF-7 cells [3]) | Combination Effect with gefitinib (MCF-7 cells [3]) | % Cell Growth, combination with gefitinib (MCF-7 cells [3]) | CI, combination with gefitinib (MCF-7 cells [3]) | HSC-3 growth inhibition (HSC-3 cells; concentration of 10 μΜ)
24 µM | 191 to 192 °C | 0% | 32% |  |  | CC1(C)OC(c2ccc(F)cc2)=C(c2ccc(S(C)(=O)=O)cc2)C1=O [1h, 5-(4′-Fluorophenyl)-2,2-dimethyl-4-[4′-(methylsulfonyl)phenyl]-furan-3(2H)-one] | 100 ± 10% | 90 µM | antagonism | 38.6% | >1 | 48.8% | synergism | 27.3% | 0.533 ± 0.015 <1 | antagonistic effect; also recorded: antagonism | 45.9% | >1 | 
10 µM |  | 0% | 73% | > 50 µM | 2.8 µM | C[S+]([O-])c1ccc(C2=C(c3ccc(F)cc3)OC(C)(C)C2=O)cc1 (stereo not shown) [1g, 5-(4′-Fluorophenyl) 2,2-dimethyl-4-[4-(methylsulfinyl)phenyl]-furan-3(2H)-one] | 36 ± 4% | 7.5 µM | synergism | 36.6% | 0.750 ± 0.025 < 1 | 49% | synergism | 19.1% | 0.058 ± 0.010 <1 | synergism | 36.5% | 0.780 ± 0.200 < 1 | 64%
